Source: PubChem BioAssay AID366 (MTDP, 2006)
Activity calls are given as the source filed them. No rule for the calls is given here.

Biological target: Ribonuclease H1 (Homo sapiens) (UniProt O60930)
Assay: human RNase H1 inhibitors, dose response, biochemical, FRET RNA/DNA duplex cleavage (AID 366);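 also: potency is for inhibitors that lower RNA cleavage and so lower fluorescence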
Details: fluorescence

Chain of Ribonuclease H1 (Homo sapiens) (O60930 whole entry, looked up): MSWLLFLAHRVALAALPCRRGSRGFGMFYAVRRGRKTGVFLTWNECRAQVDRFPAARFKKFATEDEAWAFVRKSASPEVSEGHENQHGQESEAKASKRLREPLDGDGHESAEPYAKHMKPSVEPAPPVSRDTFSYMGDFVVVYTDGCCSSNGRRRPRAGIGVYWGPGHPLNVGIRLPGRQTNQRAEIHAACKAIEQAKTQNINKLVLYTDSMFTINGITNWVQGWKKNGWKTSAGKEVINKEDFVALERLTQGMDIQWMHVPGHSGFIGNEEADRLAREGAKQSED

Row | Structure (SMILES) | IC50
1 | O=C1O/C(=C(/C(=O)O)c2ccc(O)cc2)C(O)=C1c1cc2c3c(c(O)cc(C4=C(O)/C(=C(\C(=O)O)c5ccc(O)cc5)OC4=O)c3c1)OC2=O | 0.6 µM
2 | COc1ccccc1N=C(NOCc1ccc(Cl)cc1Cl)c1nonc1N | 8.8 µM
3 | Cc1ccc(C=C2C(=O)NC(=S)N(c3ccccc3Cl)C2=O)o1 | inactive
4 | O=C1NC(=S)N(c2ccc(Cl)cc2)C(=O)/C1=C\C=C\c1ccccc1[N+](=O)[O-] | 7 µM
5 | COc1cc(C=O)ccc1OCCCOc1cccc(Oc2ccccc2)c1 | 6 µM
6 | O=c1c(O)c(-c2cc(O)c(O)c(O)c2)oc2cc(O)cc(O)c12 | 3 µM
7 | Oc1ccc2ccccc2c1C=NCc1c(O)ccc2ccccc12 | 8 µM
8 | Cc1sc(NC(=O)c2cccc([N+](=O)[O-])c2)c(C(N)=O)c1C | 0.7 µM
9 | O=C(O)/C=C/c1c2ccc(=O)c(O)c-2oc2c(O)c(O)ccc12 | 0.05 µM
10 | COc1ccc2oc(=O)c(-c3csc(Nc4ccc(Br)cc4)n3)cc2c1 | 0.9 µM
11 | CCOc1ccc(N2C(=O)/C(=C/c3ccc(I)o3)C(=O)NC2=S)cc1 | 2 µM
12 | O=C(N/N=C/c1ccc(/C=N/NC(=O)c2ccc(O)c(O)c2)cc1)c1ccc(O)c(O)c1 | 0.04 µM
13 | C=CC1=C(C)C2=NC1=CC1=NC(=CC3=C(C)C4=C(O)C(C(=O)OC)C(=C5NC(=C2)C(C)C5CCC(=O)OC/C=C(\C)CCCC(C)CCCC(C)CCCC(C)C)C4=N3)C(CC)=C1C (stereo not given) | > 100 µM (inactive)
14 | COc1ccc(N2C(=O)/C(=C/c3ccc(I)o3)C(=O)NC2=S)cc1 | 1.2 µM
15 | O=C1C=CC(=O)C(c2cccc(Cl)c2)=C1 | 3.9 µM
16 | Cc1c(Cl)ccc2c1NC(C(=O)O)C1CC=CC21 (stereo not given) | 2 µM
17 | O=c1[nH]c(=S)n(-c2ccccc2F)c(O)c1C=C1C=CC=N1 | 0.4 µM
18 | O=c1c(O)cccc2cc(O)c(O)c(O)c12 | 0.9 µM
19 | O=C1NC(=O)/C(=C/c2ccc(-c3ccc(O)c(C(=O)O)c3)o2)S1 | 0.2 µM
20 | CCOc1ccc(NC(=O)c2c(NC(=O)c3ccco3)sc3c2CCCCC3)cc1 | 2.1 µM
21 | Cc1ccc(C)n1-c1ccc(O)c(C(=O)O)c1 | 0.9 µM
22 | CN1CC(O)C2=CC(=O)C(=O)C=C21 (stereo not given) | 1.6 µM
23 | Cc1ccc(C(=O)NC(=S)Nc2ccc(-c3nc4ccccc4s3)cc2)cc1[N+](=O)[O-] | 0.8 µM
24 | Cc1cccc(NCC(=O)N/N=C\c2c(Br)cc(Br)c(O)c2Br)c1 | inactive
25 | O=C1C(Cl)=C(NC(=O)c2ccccc2)C(=O)C(Cl)=C1NC(=O)c1ccccc1 | inactive

Row | Structure (SMILES) | IC50
26 | O=C(O)c1c(Br)c(Br)c(Br)c(Br)c1C1c2ccc(O)cc2Oc2cc(O)ccc21 | 0.9 µM
27 | C[N+](C)=c1ccc2nc3c(cc(Nc4ccccc4)c4ccccc43)oc-2c1 | 1.6 µM
28 | NC(=O)c1c(NC(=O)CCc2ccccc2)sc2c1CCCCCC2 | 1.8 µM
29 | Cc1c(O)c(Br)c(C)c(O)c1Br (tested in a mixture with another compound) | inactive
30 | C[C@@H]1Oc2c3c(c4c(-c5ccccc5)cc(=O)oc4c2C(=O)[C@H]1C)OC(C)(C)C=C3 | 3.1 µM
31 | Nc1ccc(N=Nc2ccc(-c3ccc(O)cc3)cc2)c2ccc(S(=O)(=O)O)cc12 | 4.8 µM
32 | O=C(Nc1sc2c(c1C(=O)Nc1cccc3ccccc13)CCCCC2)c1ccccc1F | 4.8 µM
33 | CCN1C(=O)/C(=C/c2ccoc2)C(=O)NC1=S | > 100 µM (inactive)
34 | Cc1cccc(NC(=O)c2c(NC(=O)c3ccc([N+](=O)[O-])cc3)sc3c2CCCC3)c1 | 0.58 µM
35 | O=c1c(O)c(-c2ccc(O)c(O)c2)oc2cc(O)cc(O)c12 | 3 µM
36 | COc1c(OC)c(O)c2c(=O)cc(-c3ccc(O)c(O)c3)oc2c1OC | inactive
37 | C=CCN1C(=O)/C(=C\c2ccc([N+](=O)[O-])o2)C(=O)NC1=S | inactive
38 | O=c1[nH]c2[nH]c(=S)[nH]c(=S)c2[nH]1 | 9 µM
39 | O=C1C=C/C(=N\S(=O)(=O)c2cc(Cl)ccc2Cl)C=C1Cl | 1.6 µM
40 | O=C1c2ccccc2C(=O)c2c1cc(O)c(O)c2O | 0.6 µM
41 | CC1=NN(c2ccc(S(N)(=O)=O)cc2)C(=O)/C1=C/c1ccc(-c2ccc(Cl)cc2Cl)o1 | 0.75 µM
42 | CC(=O)O[C@H](C)[C@@H]1C2=C(C(=O)C[C@]1(C)O)C(=O)c1c(ccc(-c3ccc4c(c3O)C(=O)C3=C(C4=O)[C@@H]([C@@H](C)OC(C)=O)[C@@](C)(O)CC3=O)c1O)C2=O | 6 µM
43 | Cc1nn(CC(=O)Nc2sc(C)c(C)c2C(N)=O)c(C)c1[N+](=O)[O-] | 6 µM
44 | COc1ccccc1NC(=O)c1c(NC(=O)Cc2ccccc2)sc2c1CCCCC2 | 0.48 µM
45 | CC1Oc2cc3c(-c4c(O)cc(O)c5c(O)c6c(cc45)OC(C)C(C)C6=O)c(O)cc(O)c3c(O)c2C(=O)C1C (stereo not given) | 2.7 µM
46 | O=C1C=CC(=O)C(c2cc(Cl)ccc2Cl)=C1 | 3 µM
47 | O=C(CSc1nc2ccccc2s1)c1sc2sc3ccccc3[n+]2c1[O-] | 0.3 µM
48 | O=C1/C(=C/c2ccc(O)c(O)c2)SC(=S)N1c1ccc(O)cc1 | 3.5 µM
49 | Cc1cc(Br)ccc1N1C(=O)/C(=C/c2ccco2)C(=O)NC1=S | 0.8 µM
50 | Cc1sc(NC(=O)c2ccc(Br)o2)c(C(N)=O)c1C | 5 µM

Row | Structure (SMILES) | IC50
51 | C=CC(C)(C)C12CC3C(=O)N/C(=C\c4cnc[nH]4)C(=O)N3C1Nc1ccccc12 (stereo not given) | inactive
52 | O=C(Cc1ccccc1Cl)c1ccc(O)c(O)c1O | inactive
53 | Cc1sc(NC(=O)Cc2ccccc2)c(C(N)=O)c1C | inactive
54 | C=Cc1c(C)c2cc3[nH]c(cc4nc(cc5nc(cc1[nH]2)C(C)=C5CCC(=O)O)C(CCC(=O)O)=C4C)c(C)c3C=C | 0.2 µM
55 | O=C1/C(=C\c2ccc(O)c(O)c2)SC(=S)N1c1cccc(Cl)c1 | 1.6 µM
56 | COC(=O)c1c(N)sc(C(=O)Nc2ccc(OC)cc2)c1C | inactive
57 | C=C(C)[C@@H]1CCc2c(O)c(O)c(=O)cc(C)c2C1 | 3.8 µM
58 | O=C1C(Cl)=C/C(=N\S(=O)(=O)c2ccccc2)C(Cl)=C1Cl | 4.1 µM
59 | O=C(N/N=C/c1ccccc1Cl)c1cc(O)c(O)c(O)c1 | inactive
60 | Nc1cc(S(N)(=O)=O)ccc1SSc1ccc(S(N)(=O)=O)cc1N | inactive
61 | Cc1cc(C(=O)O)ccc1-n1c(C)ccc1C | inactive
62 | Cc1ccc(N2C(=O)/C(=C/c3ccc(O)c(O)c3)SC2=S)cc1C | 4 µM
63 | O=C1C(Cl)=C/C(=N\S(=O)(=O)c2ccc(Cl)cc2)C(Cl)=C1Cl | 4.6 µM
64 | CC1C2C=CC1C(c1c3ccc(=O)c(O)c-3oc3c(O)c(O)ccc13)C2C(=O)O (stereo not given) | 0.07 µM
65 | COC(=O)c1cc2cc3cc4cc(CC(=O)O)c(C(=O)/C=C(\O)c5ccccc5O)c(OC)c4c(OC)c3c(O)c2c(=O)o1 | 1.2 µM
66 | CC1=c2c(oc3cc(O)c(Nc4c(C)cc(O)cc4O)c(C)c23)=CC(=O)C1=Nc1c(C)cc(O)cc1O | 0.3 µM
67 | O=C1c2ccccc2C(=O)c2c(NC3CCCCC3)ccc(Nc3ccc(S(=O)(=O)O)cc3)c21 | 2.2 µM
68 | O=C1C=CC(=NS(=O)(=O)c2ccc(Cl)c([N+](=O)[O-])c2)C=C1 | 2.1 µM
69 | Cc1sc(NC(=O)C2CC3CCC2C3)c(C(N)=O)c1C (stereo not given) | inactive
70 | O=C1C(Cl)=C(Nc2ccc(S(=O)(=O)Nc3ccccn3)cc2)C(=O)c2ccccc21 | inactive
71 | COc1cc([C@@H]2c3cc4c(cc3C[C@H]3COC(=O)[C@@H]32)OCO4)cc(OC)c1O | 1.8 µM
72 | Cc1cc(O)c2c(c1O)C(=O)c1cccc(O)c1C2=O | inactive
73 | O=C1C=CC(=O)c2c(O)cccc21 | 0.5 µM
74 | CCOc1ccc(C(=O)Nc2ccc3c(c2)C(=O)c2ccccc2C3=O)cc1 | 1.1 µM
75 | NC(=O)c1c(NC(=O)COc2ccccc2)sc2c1CCCCC2 | 3.8 µM

Row | Structure (SMILES) | IC50
76 | O=C1CC(=O)c2ccc3c4c(ccc1c24)C(=O)CC3=O | 0.4 µM
77 | Cc1ccc(-c2n[nH]c(=S)n2/N=C/c2ccc(O)c(O)c2O)cc1 | inactive
78 | Cc1sc(NC(=O)c2ccc3c(c2)OCO3)c(C(N)=O)c1C | 3.3 µM
79 | O=[N+]([O-])c1ccc2c(N=Nc3ccc4ccccc4c3O)c(O)cc(S(=O)(=O)O)c2c1 | 0.3 µM
80 | Cc1cc(I)c2c(c1)C1C=CCC1C(C(=O)O)N2 (stereo not given) | inactive
81 | C[C@]12CC[C@H]3[C@@H](CCC4=CC(=O)CC[C@@]43C)[C@@H]1CC[C@@H]2C(=O)COS(=O)(=O)c1ccc(Br)cc1 | 1.1 µM
82 | C=CCn1c(N)c(-c2nc3ccccc3[nH]2)sc1=S | inactive
83 | CCOc1ccc(N2C(=O)/C(=C/c3ccc(Br)o3)C(=O)NC2=S)cc1 | 0.7 µM
84 | CC(=O)/C=C/C=C/c1ccc2c(c1)OC(CO)C(c1ccc(O)c(O)c1)O2 (stereo not given) | 6 µM
85 | O=[N+]([O-])c1cc(Cc2cc([N+](=O)[O-])c3cccnc3c2O)c(O)c2ncccc12 | 0.5 µM
86 | CCCc1cc(=O)oc2c3c(c4c(c12)OC(C)(C)C=C4)O[C@H](C)[C@@H](C)[C@H]3OC | 4.9 µM
87 | CCCCCCCCCCCCCCCC(=O)OCC1OC(n2ccc(N)nc2=O)C(O)C1O (stereo not given) | 0.6 µM
88 | Cc1cc(=O)c2c(O)c3c(O)cc(O)c4c5c(O)cc(O)c6c(O)c7c(=O)cc(C)c8c1c2c(c34)c(c65)c78 | 1.1 µM
89 | O=C1NC(=S)N(c2ccc(Cl)cc2)C(=O)/C1=C/c1ccc(Br)o1 | 0.6 µM
90 | CCC(=O)Nc1sc2c(c1C(=O)Nc1ccc(OC)cc1)CCCCC2 | 9 µM
91 | CC1=C(CCC(=O)O)c2cc3nc(cc4[nH]c(cc5[nH]c(cc1n2)c(C)c5C(C)O)c(C)c4C(C)O)C(C)=C3CCC(=O)O (stereo not given) | 0.4 µM
92 | C=C(CCC(C(=O)O)C1CCC2(C)C3=C(CCC12C)C1(C)CCC(O)C(C)(C)C1CC3)C(C)C (stereo not given) | 4.8 µM
93 | O=C1NC(=S)N(c2ccccc2F)C(=O)C1=Cc1ccco1 | 0.2 µM
94 | NCC[Se][Se]CCN | 5.3 µM
95 | Oc1cc(O)c2c(c1)OC(c1ccc(O)c(O)c1)C(OC1(c3cc(O)c(O)c(O)c3)Oc3cc(O)cc(O)c3C(O)C1O)C2 (stereo not given) | 2.4 µM
96 | C=C/C(C)=C/C[C@]1(C)[C@H](C)CC[C@@]23C(=C[C@H](OC(=O)c4ccc(O)c(OC)c4)C[C@@H]12)[C@@H](OC(C)=O)O[C@H]3OC(C)=O | 4 µM
97 | CC1=C(C)CC(C(=O)Nc2ccc(N3C(=O)c4ccccc4C3=O)cc2)C(C(=O)O)C1 (stereo not given) | inactive
98 | CCOc1ccc(NC(=O)c2c(NC(=O)c3ccccc3)sc3c2CCCCC3)cc1 | 1.1 µM
99 | O=C1c2ccccc2C(=O)c2c(O)c(O)cc(O)c21 | 4.2 µM
100 | Cc1cc(C)c2c(=O)[nH]c(SCC(=O)c3ccc(O)c(O)c3)nc2n1 | 9 µM
